Measured values reported in US7151165B2, “Antibodies immunospecific for a novel human G-protein coupled receptor family” (priority 1999, dated 2006).

Assays:
[1] = target: T1, IGS4A (Homo sapiens, UniProt Q9GZQ4, A395T); test: FLIPR intracellular calcium mobilisation in CHOGα16-IGS4 cells (IGS4A); format: cell-based; details: range 10^−6–10^−12 M
T1 construct: expressed in transfected cells; host or cells: CHOGα16 (CHO cells stably expressing Gα16, Molecular Devices), transfected with IGS4-pcDNA3.1
Experimental: (§1) A. Method and Materials for IGS-4 Transfected CHOGα16IGS4 cells.
(§2) The following materials were used in the experiments: Vector containing IGS4-DNA sequence (IGS4-pcDNA3.1); SuperFect Transfection Reagent (Qiagen): Nut-Mix F12 (Gibco) with 10% FCS, 0.028 mg/ml Gentamycin (Gibco); 0.22 mg/ml Hygromycin (Gibco).
(§3) Materials used for clone selection: Nut-Mix F12 with 10% FCS; 0.028 mg/ml Gentamycin; 0.22 mg/ml Hygromycin and 0.55 mg/ml Geneticin (Gibco).
The following method was applied: Transfection with SuperFect Transfection Reagent was carried out as described by the manufacturer (Qiagen). Cells were plated in 24-well plates to 50% confluence. Per well […] plasmid-DNA with 1 μl SuperFect Transfection Reagent was added. After 24 hours the medium was changed and transfected cell clones were selected by Geneticin-containing selection-medium. […]
The method was worked as follows: The 2 mM stock of dye was mixed with an equal volume of 20% (w/v) pluronic acid immediately before adding to the loading-Buffer. […] In order to calculate the, background fluorescence, some wells were not dye loaded. The background fluorescence in these wells results from autofluorescence of the cells. After dye loading, cell were washed three times with Wash-Buffer (automated Denley cell washer) to reduce the basal fluorescence to 20.000–25.000 counts above background. […]

[2] = tested on: IGS4; test: Basal intracellular cAMP in CHOGα16-IGS4 cells; format: cell-based, human; details: 1 and 10 μM; data not shown
[3] = target: T2, IGS4B (Homo sapiens, UniProt Q9GZQ4, A395T/F315L/M388V/P383L/S298T); test: FLIPR intracellular calcium mobilisation in CHOGα16-IGS4 cells (IGS4B); format: cell-based; details: for maximal activation of IGS4B: comparison among the three neuromedin U isoforms; for IGS4-mediated calcium mobilisation in the FLIPR assay: range 10^−6–10^−12 M, IGS4B
T2 construct: expressed in transfected cells; host or cells: CHOGα16 (CHO cells stably expressing Gα16, Molecular Devices), transfected with IGS4-pcDNA3.1
Experimental: as §1, §2, §3
The following method was applied: Transfection with SuperFect Transfection Reagent was carried out as described by the manufacturer (Qiagen). Cells were plated in 24-well plates to 50% confluence. Per well […] plasmid-DNA with 1 μl SuperFect Transfection Reagent was added. After 24 hours the medium was changed and transfected cell clones were selected by Geneticin-containing selection-medium. IGS4 expressing cell clones were characterized by RT-PCR and Northern Blot.
B. Method and Materials for FLIPR-Assay.
The method was performed as follows: Cells were seeded 24 hours or 48 hours prior to the experiment into black wall microplates. The cell density was […] cells/well for 48 hour incubation and […] cells/well for 24 hour incubation. All steps were done under sterile conditions.
In order to observe changes in intracellular calcium levels, cells must be ‘loaded’ with a calcium-sensitive fluorescent dye. This dye, called FLUO-4 (Molecular Probes) is excited at 488 nm, and emits light in the 500–560 nm range, only if a complex with calcium is formed. The dye was used at 4 μM final concentration. Pluronic acid was added to increase dye solubility and dye uptake into the cells. Probenicid, an anion exchange protein inhibitor, was added to the dye medium to increase dye retention in the cells.
The method was worked as follows: The 2 mM stock of dye was mixed with an equal volume of 20% (w/v) pluronic acid immediately before adding to the loading-Buffer. The growth-medium was aspirated out of the well without disturbing the confluent cell layer. 100 μl loading medium was dispensed into each well using a Multidrop (Labsystems). Cell were incubated in a 5% CO2, 37° C. incubator for 30 minutes. In order to calculate the, background fluorescence, some wells were not dye loaded. The background fluorescence in these wells results from autofluorescence of the cells. After dye loading, cell were washed three times with Wash-Buffer (automated Denley cell washer) to reduce the basal fluorescence to 20.000–25.000 counts above background. 100 l buffer was added and cell were incubated at 37° C. till start of the experiment. […]
The resulting CHOGα16-IGS4 cells were functionally screened on a Fluorometric Imaging Plate Reader (FLIPR) to measure mobilisation of intracellular calcium in response to putative peptide ligands. […]

T2 sequence (Q9GZQ4 whole entry S298T/F315L/P383L/M388V/A395T, canonical isoform): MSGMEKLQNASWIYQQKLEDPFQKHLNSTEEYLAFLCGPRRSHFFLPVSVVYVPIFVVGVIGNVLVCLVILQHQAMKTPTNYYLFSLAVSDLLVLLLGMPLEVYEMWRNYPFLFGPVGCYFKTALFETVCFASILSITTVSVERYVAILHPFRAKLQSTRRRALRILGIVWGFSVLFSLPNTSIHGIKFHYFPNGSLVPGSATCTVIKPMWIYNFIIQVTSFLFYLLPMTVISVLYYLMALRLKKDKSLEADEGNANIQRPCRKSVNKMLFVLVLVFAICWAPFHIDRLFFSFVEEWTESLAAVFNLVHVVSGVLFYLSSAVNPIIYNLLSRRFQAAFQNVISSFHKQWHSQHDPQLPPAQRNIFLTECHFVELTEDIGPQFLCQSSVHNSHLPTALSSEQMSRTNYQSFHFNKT
T1 sequence (Q9GZQ4 whole entry A395T): as the sequence (Q9GZQ4 whole entry S298T/F315L/P383L/M388V/A395T, canonical isoform) above, with T298S, L315F, L383P, V388M counted along it

Row | maximal activation of IGS4B [3] | Substance | IGS4-mediated calcium mobilisation in the FLIPR assay [1] | basal levels of intracellular cAMP [2] | IGS4-mediated calcium mobilisation in the FLIPR assay [3]
1 | same maximal activation | neuromedin U-8 | induced specific IGS4-mediated calcium mobilisation | not modulated | induced specific IGS4-mediated calcium mobilisation
2 | same maximal activation | neuromedin U-25 | induced specific IGS4-mediated calcium mobilisation | – | induced specific IGS4-mediated calcium mobilisation
